What was measured:
[1] = Thioflavin-T kinetics assay of aggregation propensity; type: physicochemical; details: 500 μg/ml peptide in normal saline, 12-24 h; FIGS. 6A, 6B
Experimental: THT method. ThT (Sigma-Aldrich) was prepared at 4 mM in MQ water. 50 μL of 500 μg/ml peptide (in normal saline) were incubated with 250 μL of 2.4 mM ThT solution (in water). ThT fluorescence was measured at 440 nm excitation and 480 nm emission in a black, clear-bottom 96-well plates (Corning, USA) at 10-15 min intervals (from bottom with periodic shaking) over 12-24 h on SpectraMax i3 microplate reader (Molecular Devices, USA). Curves were fitted using GraphPad Prism software.

5XFAD mice [2] = test: Plaque load by immunohistochemistry in brains of 5XFAD mice; type: in vivo, mouse; details: 5XFAD mice treated for five weeks
Experimental: Female wild type and 5xFAD transgenic mice (Jackson laboratories) were used for the mouse behavioural experiment. Mice were individually housed in controlled humidity, temperature and light conditions, and had ad libitum access to food and water. Randomization to treatment groups was carried out by using GraphPad QuickCalcs (GraphPad Software, San Diego, CA, USA), and all data analysis was performed blinded to the experimental groups. All the animal experiments followed the Council of Europe Legislation and Regulation for Animal Protection and are approved by the National Animal Experiment Board of Finland. Every effort was made to minimize the harm and suffering of the animals. […]
Immunohistochemistry: The brains were post-fixed in 4% paraformaldehyde (PFA, Sigma-Aldrich, St. Louis, MO, USA) for 20 hours, followed by cryoprotection in 30% sucrose for 48 hours. […] For quantification of the immunoreactivities, hippocampal areas were imaged using 4 or 10× magnification on an AX70 microscope (Olympus corporation, Tokyo, Japan) with an adjacent digital camera (Color View 12 or F-View, Soft imaging system, Muenster, Germany) running AnalySis software (Soft Imaging System). Quantification of the immunoreactivities was performed using ImagePro Plus software (Media Cybernetics Inc., Rockville, MD, USA) at a predefined range and presented as relative immunoreactive area. […]

5XFAD mice [3] = test: Nest building behavioural test in 5XFAD mice; type: in vivo, mouse; details: peptide i.v., FIGS. 4A-4C
Experimental: Female wild type and 5xFAD transgenic mice (Jackson laboratories) were used for the mouse behavioural experiment. Mice were individually housed in controlled humidity, temperature and light conditions, and had ad libitum access to food and water. Randomization to treatment groups was carried out by using GraphPad QuickCalcs (GraphPad Software, San Diego, CA, USA), and all data analysis was performed blinded to the experimental groups. […] Every effort was made to minimize the harm and suffering of the animals. The mice were treated with the vehicle or peptide preparations once a week i.v. starting at the age of 1 month until 3 months of age. Behavioral testing: the 5xFAD mice have deficits in nest building test starting at 3 months of age. Briefly, the soft bedding material and plastic shelter tube are moved to the one end of the cage and soft tissue paper (17 cm×17 cm) is placed in the other end of the cage. After 24 hours, a picture of the cage is taken, and the points given according to the set scale. 0 points are given if tissue paper remains untouched, 5 points are given when animal incorporates tissue into nest.

ERK1/2 phosphorylation = ERK1/2 phosphorylation ELISA in SH-SY5Y cells; type: cell-based; details: 30 pM peptide, 5 minutes, FIG. 16
Experimental: Phosphorylation of ERK is important for cell proliferation, neurogenesis and synaptic plasticity, and is downstream of calcium influx through the α7 receptor. To obtain the data shown in FIG. 16, SH-SY5Y cells were treated with 30 pM peptide for 5 minutes, then lysed and ERK phosphorylation quantified via a commercial ELISA kit.

| Substance | aggregation propensity (thioflavin-T fluorescence) [1] | plaque load in the cortex versus vehicle treated animals (5XFAD mice [2]; FIG. 5A) | plaque accumulation in the hippocampi versus vehicle treated animals (5XFAD mice [2]; FIG. 5B) | phenotype restoration / rescue (behaviour) (5XFAD mice [3]) | phenotype restoration / rescue (behaviour) (5XFAD mice [3]; listed as RT3) | downstream ERK1/2 phosphorylation (ERK1/2 phosphorylation) |
| --- | --- | --- | --- | --- | --- | --- |
| SEQ ID NO:3: Aβ40: Aβ42 with deletion of residues 41 and 42 of the beta-sheet aggregation domain | lower aggregation propensity than wild type Aβ42 | reduced plaque load in the cortex | decreased level of plaque accumulation in the hippocampi | phenotype restoration | phenotype rescue | – |
| SEQ ID NO:88: Aβ42 analogue having a proline (P) substitution in place of methionine (M) at position 35 (M35P) | lower aggregation propensity than the peptide having SEQ ID NO:3 | – | – | phenotype rescue | – | induces downstream ERK1/2 phosphorylation |
| SEQ ID NO: 190: Aβ42 analogue with N-methyl methionine substituted for the naturally occurring methionine at position 35 | lower aggregation propensity than wild type Aβ42 | – | – | – | – | induces downstream ERK1/2 phosphorylation |
| SEQ ID NO: 192: Aβ42 analogue with pyrrolysine substituted for the naturally occurring methionine at position 35 | lower aggregation propensity than wild type Aβ42 | – | – | – | – | – |

From patent US20250268982A1, “COMPOSITIONS AND METHODS FOR TREATMENT AND/OR PROPHYLAXIS OF PROTEINOPATHIES” (REGAIN THERAPEUTICS SWEDEN AB, priority 2021, published 2025)
